This note sets out measurements from patent publication US5861476A, “Peptides and compounds that bind to the IL-1 receptor” (Affymax Technologies N.V., priority 1995, dated 1999).

Read-outs that look alike come from different tables or passages of the source. Where a SMILES comes first, the peptide text is derived from it. Where no end group is shown, it is not given here. [ ]: non-standard residue; d: D form. pY = N[C@@H](Cc1ccc(OP(=O)(O)O)cc1)C(=O)O; 1Nal = N[C@@H](Cc1cccc2ccccc12)C(=O)O; Aze = O=C(O)[C@@H]1CCN1

The target in assay [1] is T1, IL-1 induced E-selectin in HUVEC cells (Homo sapiens, UniProt P14778).
T1 sequence (P14778 18-569): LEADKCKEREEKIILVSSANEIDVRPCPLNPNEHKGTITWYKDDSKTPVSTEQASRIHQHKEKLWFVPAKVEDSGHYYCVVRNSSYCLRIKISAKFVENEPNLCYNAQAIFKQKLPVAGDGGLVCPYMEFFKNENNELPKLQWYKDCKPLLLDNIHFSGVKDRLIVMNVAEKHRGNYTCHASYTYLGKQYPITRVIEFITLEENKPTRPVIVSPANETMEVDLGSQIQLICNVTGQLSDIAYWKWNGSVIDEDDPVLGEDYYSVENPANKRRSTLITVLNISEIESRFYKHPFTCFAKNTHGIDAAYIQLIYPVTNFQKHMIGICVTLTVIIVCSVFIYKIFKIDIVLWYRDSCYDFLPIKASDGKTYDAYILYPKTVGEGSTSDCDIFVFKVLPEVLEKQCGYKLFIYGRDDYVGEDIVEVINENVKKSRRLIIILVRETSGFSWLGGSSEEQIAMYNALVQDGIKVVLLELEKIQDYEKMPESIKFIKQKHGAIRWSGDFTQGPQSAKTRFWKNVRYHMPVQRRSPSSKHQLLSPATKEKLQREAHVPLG
As to the kind of experiment: Peptide Effects on IL-1 Induced E-Selectin (HUVEC Cells). It is filed as cell-based. As to conditions: 120 pM IL-1α, read-out: IC50 (concentration required to inhibit 50% of IL-1 induced E-selectin expression). The protocol: The compounds of the present invention were assayed for their ability to inhibit the expression of IL-1 induced E-selectin in HUVEC cells (human umbilical vein endothelial cells). HUVEC cells are grown to confluency in the wells of a 24-well microtiter plate. The compounds were serially diluted in DMEM/F12+0.1% BSA ("SFM"with 120 pM IL-1α. The cells were washed and then incubated with IL-1α and the compound to be tested for 15 minutes. The cells were again washed and incubated in SFM for 4 hours. The cells were washed and incubated with anti-selectin antibody for 30 minutes. Following antibody incubation, the cells were incubated with ^125 I Protein A and washed. The amount of ^125 I bound to the cells was then determined. The concentration of compounds required to inhibit 50% of IL-1 induced E-selectin expression is shown below.

Assay [2] concerns the target T2, IL-1 induced down-regulation of the epidermal growth factor (EGF) receptor in normal human dermal fibroblasts (NHDF) (Homo sapiens, UniProt P14778).
T2 sequence (P14778 18-569): T1 sequence (P14778 18-569)
The assay can be described thus: Epidermal Growth Factor Receptor Down Regulation Assay. It counts as cell-based. As to conditions: 37° C., in the presence of IL-1α, 125I-labeled EGF binding, read-out: IC50 (approximate concentration which blocked 50% of the IL-1 induced down regulation of the EGF receptor). The source says:
The protocol set forth in Bird and Saklatvala (1989) J. Immunol. […] This assay examines the effect of the compounds of the invention on the IL-1 induced down-regulation of the epidermal growth factor (EGF) receptor as measured by the binding of ^125 I-labeled EGF to its receptor in normal human dermal fibroblasts (NHDF). […] The table below lists the approximate concentration of representative peptides of the invention which blocked 50% of the IL-1 induced down regulation of the EGF receptor. IC50 values are indicated symbolically by the symbols "-", "+", and "++". […] Those peptides which give IC50 values of less than or equal to 100 μM are given a "+", while those which give IC50 values of 500 nM or less are indicated with a "++". Those peptides which give IC50 values at or near the cutoff point for a particular symbol are indicated with a hybrid, e.g. "±". Those peptides for which IC50 values were not determined are listed as "N.D".

In a further assay the target is T3, IL-1RtI (Homo sapiens, UniProt P14778).
T3 construct: made in house; host or cells: recombinant host cells (one form soluble from baculovirus transformed host cells; another PIG-tailed and cleaved from the cell surface)
T3 sequence (P14778 18-336): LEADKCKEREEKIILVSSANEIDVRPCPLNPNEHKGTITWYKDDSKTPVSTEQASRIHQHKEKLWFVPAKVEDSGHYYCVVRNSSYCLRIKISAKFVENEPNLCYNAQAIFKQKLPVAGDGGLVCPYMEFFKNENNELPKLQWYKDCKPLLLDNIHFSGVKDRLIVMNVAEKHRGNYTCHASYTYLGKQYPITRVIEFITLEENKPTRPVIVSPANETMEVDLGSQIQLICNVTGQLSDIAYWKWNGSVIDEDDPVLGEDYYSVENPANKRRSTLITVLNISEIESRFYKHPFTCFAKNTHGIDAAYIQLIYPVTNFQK
As to the kind of experiment: Inhibition of 125I-IL-1α binding to IL-1RtI (Example 3). The method, boiled down: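 Competition with 90 pM 125I-IL-1α was run in duplicate for 2 h at 4 °C in HEPES-buffered RPMI with 1% BSA, pH 7.2-7.3, against either antibody-captured truncated receptor or cells with full-length IL-1RtI. Gamma counting of NaOH-detached material gave approximate IC50; high-affinity peptides used 24-well format.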

Where [3] appears, read: inhibition of 125I-IL-1α binding to IL-1RtI, soluble peptide unless marked *.

Consider `CC(=O)N[C@@H](Cc1ccccc1)C(=O)N[C@@H](CCC(=O)O)C(=O)N[C@@H](Cc1c[nH]c2ccccc12)C(=O)N[C@H](C(=O)N1CCC[C@H]1C(=O)N[C@H](C)C(=O)N[C@@H](Cc1ccc(O)cc1)C(=O)N[C@@H](Cc1c[nH]c2ccccc12)C(=O)N[C@@H](CCC(N)=O)C(=O)N1CC[C@H]1C(=O)N[C@@H](Cc1ccc(O)cc1)C(N)=O)[C@@H](C)O` [AcFEWTPaYWQJY--NH2] (Ac-FEWTP[dA]YWQ[Aze]Y-NH2), for which the IC50 in assay [1] was not above 500 nM; in assay [2], not above 100000 nM.

Consider `CC(C)C[C@H](NC(=O)[C@@H]1CCCN1C(=O)[C@H](CC(C)C)NC(=O)[C@H](C)NC(=O)[C@H](Cc1ccc(O)cc1)NC(=O)[C@@H]1CCN1C(=O)[C@H](CCC(N)=O)NC(=O)[C@H](Cc1c[nH]c2ccccc12)NC(=O)[C@H](Cc1ccc(O)cc1)NC(=O)[C@@H](NC(=O)[C@H](Cc1ccccc1)NC(=O)[C@@H](N)[C@@H](C)O)C(C)C)C(=O)O` [TFVYWQJYALPL] (H-TFVYWQ[Aze]YALPL-OH), for which the IC50 is not above 100000 nM on IL-1RtI (setting [3]) and more than 100000 nM in assay [2].

For the compound “FEWTPGYWQPYALPLSD-NH2 [FEWTPGYWQPYALPLSD--NH2]”, in assay [2], the IC50 was not above 500 nM.

For the compound `C[C@@H](O)[C@H](NC(=O)[C@H](Cc1c[nH]c2ccccc12)NC(=O)[C@H](CCC(=O)O)NC(=O)[C@@H](N)Cc1ccccc1)C(=O)N1CCC[C@H]1C(=O)NCC(=O)N[C@@H](Cc1ccc(O)cc1)C(=O)N[C@@H](Cc1c[nH]c2ccccc12)C(=O)N[C@@H](CCC(N)=O)C(=O)N1CC[C@H]1C(=O)N[C@@H](Cc1ccc(O)cc1)C(N)=O` [FEWTPGYWQJY--NH2] (H-FEWTPGYWQ[Aze]Y-NH2), the IC50 was not above 500 nM on IL-1RtI (setting [3]) and not above 100000 nM in assay [2].

With `CC(=O)N[C@@H](Cc1ccccc1)C(=O)N[C@@H](CCC(=O)O)C(=O)N[C@@H](Cc1c[nH]c2ccccc12)C(=O)N[C@H](C(=O)N1CCC[C@H]1C(=O)N[C@H](C)C(=O)N[C@@H](Cc1ccc(O)cc1)C(=O)N[C@@H](Cc1ccc(O)cc1)C(=O)N[C@@H](CCC(N)=O)C(=O)N1CC[C@H]1C(=O)N[C@@H](Cc1ccc(O)cc1)C(N)=O)[C@@H](C)O` [AcFEWTPaYYQJY--NH2] (Ac-FEWTP[dA]YYQ[Aze]Y-NH2), the IC50 is not above 500 nM in assay [1] and not above 100000 nM in assay [2].

Consider `CC(=O)N[C@@H](Cc1ccccc1)C(=O)N[C@@H](CCC(=O)O)C(=O)N[C@@H](Cc1c[nH]c2ccccc12)C(=O)N[C@H](C(=O)N1CCC[C@H]1C(=O)N[C@H](C)C(=O)N[C@@H](Cc1c[nH]c2ccccc12)C(=O)N[C@@H](Cc1ccc(O)cc1)C(=O)N[C@@H](CCC(N)=O)C(=O)N1CC[C@H]1C(=O)N[C@@H](Cc1ccc(O)cc1)C(N)=O)[C@@H](C)O` [AcFEWTPaWYQJY--NH2] (Ac-FEWTP[dA]WYQ[Aze]Y-NH2), for which the figures for the IC50 in assay [1] and in assay [2] were not above 500 nM and not above 100000 nM, respectively.

For `CC(C)C[C@H](NC(=O)[C@@H]1CCCN1C(=O)[C@H](CC(C)C)NC(=O)[C@H](C)NC(=O)[C@H](Cc1ccc(O)cc1)NC(=O)[C@@H]1CCN1C(=O)[C@H](CCC(N)=O)NC(=O)[C@H](Cc1ccc(OP(=O)(O)O)cc1)NC(=O)[C@H](Cc1cccc2ccccc12)NC(=O)[C@@H](N)Cc1ccc(OP(=O)(O)O)cc1)C(=O)O` [pY(1Nap)pYQJYALPL] (H-[pY][1Nal][pY]Q[Aze]YALPL-OH), the IC50 is less than 500 nM on IL-1RtI and not above 500 nM in assay [2].

As to ETPFTWEESNAYYWQPYALPL, the IC50 (on IL-1RtI (setting [3]); in assay [2]) was not above 500 nM in each case.

Turning to YIPFTWEESNAYYWQPYALPL, the IC50 in assay [2] was not above 500 nM.

On to DGYDRWRQSGERYWQPYALPL, for which the IC50 (at IL-1RtI (setting [3]); in assay [2]) was not above 500 nM throughout.

Regarding `CC(=O)N[C@@H](Cc1ccccc1)C(=O)N[C@@H](CCC(=O)O)C(=O)N[C@@H](Cc1c[nH]c2ccccc12)C(=O)N[C@H](C(=O)N1CCC[C@H]1C(=O)NCC(=O)N[C@@H](Cc1ccc(O)cc1)C(=O)N[C@@H](Cc1ccc(O)cc1)C(=O)N[C@@H](CCC(N)=O)C(=O)N1CC[C@H]1C(=O)N[C@@H](Cc1ccc(O)cc1)C(N)=O)[C@@H](C)O` [AcFEWTPGYYQJY--NH2] (Ac-FEWTPGYYQ[Aze]Y-NH2), the IC50 in assay [1] is not above 500 nM; in assay [2], 500 nM.

In the case of `CC(C)C[C@H](NC(=O)[C@@H]1CCCN1C(=O)[C@H](CC(C)C)NC(=O)[C@H](C)NC(=O)[C@H](Cc1ccc(O)cc1)NC(=O)[C@@H]1CCN1C(=O)[C@H](CCC(N)=O)NC(=O)[C@H](Cc1ccc(O)cc1)NC(=O)[C@H](Cc1ccc(O)cc1)NC(=O)CNC(=O)[C@@H]1CCCN1C(=O)[C@@H](NC(=O)[C@H](Cc1c[nH]c2ccccc12)NC(=O)[C@H](CCC(=O)O)NC(=O)[C@@H](N)Cc1ccccc1)[C@@H](C)O)C(=O)O` [FEWTPGYYQJYALPL] (H-FEWTPGYYQ[Aze]YALPL-OH), the IC50 in assay [1] and in assay [2] was not above 500 nM in each case.

For the compound `CC(C)C[C@H](NC(=O)[C@@H]1CCCN1C(=O)[C@H](CC(C)C)NC(=O)[C@H](C)NC(=O)[C@H](Cc1ccc(O)cc1)NC(=O)[C@@H]1CCN1C(=O)[C@H](CCC(N)=O)NC(=O)[C@H](Cc1c[nH]c2ccccc12)NC(=O)[C@H](Cc1ccc(O)cc1)NC(=O)CNC(=O)[C@@H]1CCCN1C(=O)[C@@H](NC(=O)[C@H](Cc1c[nH]c2ccccc12)NC(=O)[C@H](CCC(=O)O)NC(=O)[C@@H](N)Cc1ccccc1)[C@@H](C)O)C(=O)O` [FEWTPGYWQJYALPL] (H-FEWTPGYWQ[Aze]YALPL-OH), the IC50 in assay [1] and in assay [2] was not above 500 nM throughout.

Consider `CC(C)C[C@H](NC(=O)[C@@H]1CCCN1C(=O)[C@H](CC(C)C)NC(=O)[C@H](C)NC(=O)[C@H](Cc1ccc(O)cc1)NC(=O)[C@@H]1CCCN1C(=O)[C@H](CCC(N)=O)NC(=O)[C@H](Cc1c[nH]c2ccccc12)NC(=O)[C@H](Cc1ccc(O)cc1)NC(=O)[C@H](NC(=O)[C@H](Cc1ccccc1)NC(=O)[C@@H](N)[C@@H](C)O)C(C)C)C(=O)O` [TFvYWQPYALPL] (H-TF[dV]YWQPYALPL-OH), for which the IC50 in assay [2] was more than 100000 nM.

As to `CC(C)C[C@H](NC(=O)[C@@H]1CCCN1C(=O)[C@H](CC(C)C)NC(=O)[C@H](C)NC(=O)[C@H](Cc1ccc(O)cc1)NC(=O)[C@@H]1CCN1C(=O)[C@H](CCC(N)=O)NC(=O)[C@H](Cc1ccc(O)cc1)NC(=O)[C@H](Cc1c[nH]c2ccccc12)NC(=O)CNC(=O)[C@@H]1CCCN1C(=O)[C@@H](NC(=O)[C@H](Cc1c[nH]c2ccccc12)NC(=O)[C@H](CCC(=O)O)NC(=O)[C@@H](N)Cc1ccccc1)[C@@H](C)O)C(=O)O` [FEWTPGWYQJYALPL] (H-FEWTPGWYQ[Aze]YALPL-OH), the IC50 in assay [1] was not above 500 nM.

At IL-1RtI (setting [3]), `C[C@H](NC(=O)CNC(=O)[C@@H]1CCCN1C(=O)[C@@H](NC(=O)[C@H](Cc1c[nH]c2ccccc12)NC(=O)[C@H](CCC(=O)O)NC(=O)[C@@H](N)Cc1ccccc1)[C@@H](C)O)C(=O)N[C@@H](Cc1c[nH]c2ccccc12)C(=O)N[C@@H](CCC(N)=O)C(=O)N1CC[C@H]1C(=O)N[C@@H](Cc1ccc(O)cc1)C(N)=O` [FEWTPGAWQJY--NH2] (H-FEWTPGAWQ[Aze]Y-NH2) yielded an IC50 of 500 nM.
